In US20220032023A1, “ULTRA-SHARP MICRONEEDLE” (THE TRUSTEES OF COLUMBIA UNIVERSITY IN THE CITY OF NEW YORK, priority 2019, published 2022):
Read-outs that look alike come from different tables or passages of the source.

Test system: guinea pig perilymph proteome
Description: Animals were treated and sampled independently, and perilymph samples were stored at −80° C. and processed for proteomics analysis upon collection of all samples.
Dexamethasone Treatment of Animals. […] Twenty-two juvenile guinea pigs of either sex weighing between 150 and 300 g were obtained from a commercial vendor (Charles River Laboratories, Inc., Wilmington, Mass.).
Eight animals were assigned to the control group and were not given any treatment prior to aspiration. […] Guinea pigs were anesthetized with isoflurane gas (3.0% for induction and 1.0-3.0% for maintenance). […] The guinea pig remained under isoflurane anesthesia in a left lateral decubitus position for 30 min. The guinea pig was then allowed to recover in its cage until the aspiration procedure.
Aspiration Procedure. All guinea pigs underwent the aspiration procedure detailed below. […] All procedures were performed on the right ear. Guinea pigs were anesthetized with isoflurane gas (3.0% for induction and 1.0-3.0% for maintenance). Lidocaine was injected subcutaneously for local anesthesia. Buprenorphine sustained release (0.1 mg/kg) and meloxicam (0.5 mg/kg) were both administered subcutaneously prior to surgery for postoperative analgesia. To reduce head motion from breath cycles, head fixation was achieved using a modular 3D-printed head holder with two pointed screws placed anterior to the external auditory meatus and posterior to the orbit without piercing the skin.
A scalpel was used to create a 1 cm postauricular incision. Blunt dissection was used to expose the bulla. A 1 mm drill tip fixed onto a Stryker S2 πDrive drill (Stryker, Kalamazoo, Mich.) was used to create a small opening into the middle ear space. Additional bone was removed using forceps to enlarge the opening to 2-3 mm in diameter for optimal visualization of the RWM. A hollow microneedle, mounted onto the tip of a 2 in. long, 30 gauge, blunt small hub removable needle (Hamilton Company, Reno, Nev.), was secured onto a 10 μL Gastight Hamilton syringe (Model 1701 RN, Hamilton Company, Reno, Nev.). The syringe was mounted onto a UMP3 UltraMicroPump (World Precise Instruments, Sarasota, Fla.), and the pump was fixed to a micromanipulator. Using the micromanipulator, the mounted hollow microneedle was slowly advanced toward the RWM and the perforation was confirmed by visualization.
Using the UltraMicroPump, 1 μL of perilymph was aspirated across theRWMover 45 s. The sample was ejected into a 0.5 mL LoBind Microcentrifuge tube (Eppendorf, Hamburg, Germany) containing 2 μL of 1% protease cocktail inhibitor solution (P8340, Sigma-Aldrich, St. Louis, Mo.) in liquid chromatography/mass spectrometry grade water (Optima, ThermoFisher Scientific, Fair Lawn, N.J.) and stored at −80° C. Seventy-two hours after aspiration, animals were sacrificed with pentobarbital overdose.
Proteomics Analysis. All perilymph samples (1 μL) were stored at −80° C. and then processed as described previously. Briefly, samples were purified with a methanol chloroform protein precipitation as previously described. Proteins were resuspended in 8 M urea, 3 mM dithiothreitol (DTT), 100 mM ammonium bicarbonate in liquid chromatography/mass spectrometry grade water, reduced with dithiothreitol, and alkylated with iodoacetamide. For proteolytic digestion, samples were diluted 5-fold in 100 mM ammonium bicarbonate and then digested using sequencing grade trypsin (Promega V511) at a protease/protein ratio of 1:50 at 37° C. for 16 h as described previously. Samples were then desalted with Nest Group C18 Macrospin columns (Southborough, Mass.). Resulting peptides were analyzed by liquid chromatography/mass spectrometry as described previously.

## C[C@@H]1C[C@H]2[C@@H]3CCC4=CC(=O)C=C[C@]4(C)[C@@]3(F)[C@@H](O)C[C@]2(C)[C@@]1(O)C(=O)COP(=O)(O)O [Dex, Dexamethasone sodium phosphate]
IP Dex group
  number of perilymph proteins downregulated compared to control: 6 proteins
  number of perilymph proteins upregulated compared to control: 8 proteins
IP Dex group, of 175 proteins analysed
  number of perilymph proteins modulated compared to control: 14 proteins
IT Dex group
  number of perilymph proteins downregulated compared to control: two
  number of perilymph proteins upregulated compared to control: one
IT Dex group, of 175 proteins analysed
  number of perilymph proteins modulated compared to control: three
By either IP Dex or IT Dex, overall
  number of perilymph proteins modulated compared to control: 15 proteins
